Non-standard residues stand in square brackets, D forms with d. Residues, ends and D or L forms follow the SMILES beside them. *: point of attachment. Phenylacetyl(2,3,4,5,6-F5) = O=C(Cc1c(F)c(F)c(F)c(F)c1F)*; Phe(F5) = N[C@@H](Cc1c(F)c(F)c(F)c(F)c1F)C(=O)O; Phe(4-Cl) = N[C@@H](Cc1ccc(Cl)cc1)C(=O)O; hArg = N=C(N)NCCCC[C@H](N)C(=O)O; 12Ado = NCCCCCCCCCCCC(=O)O; Nle = CCCC[C@H](N)C(=O)O; Orn = NCCC[C@H](N)C(=O)O; Abu = CC[C@H](N)C(=O)O; PhAc = O=C(Cc1ccccc1)*

The subject of experiment [1] is prostate cancer PC3 xenograft. Description: Xenograft tumor growth in nude mice, PC3. The experiment is classed as in vivo. The settings on record: Table 4N, Prostate Ca PC3, 8 weeks, 5 μg/day s.c.; for % Inhibition: vs control. The method, then:
(§1) The peptides' activity was compared with GHRH antagonist MIA-602. All statistical analyzses were performed from comparing GHRA antagonists to non-treated tumor (control).
(§2) Peptides and chemicals. GHRH antagonists MIA-602 and AVR-GHRH antagonists (see Table 2 above) were synthesized by solid phase methods and purified by HPLC. The peptides were dissolved in DMSO and further diluted in 10% 1,2-propanediol. The final concentration of peptides was 50 µg/ml in 10% 1,2-propanediol containing 0.1% of DMSO.
(§3) Cell culture. Human cancer cell lines including pancreatic (PANC-1 and CFPAC-1), lung (HCC827 and H460), stomach (NCI-N87), prostate (PC3), brest (MX-1 and HCC-1806), colorectal (HT-29), and ovarian (SK-OV-3 and OVCAR-3) were obtained from the American Type Culture Collection (ATCC) and cultured at 37° C. in a humidified 95% air/5% CO2 atmosphere in the medium recommended by ATCC.
(§4) Xenograft models of human cancers in nude mice. Female athymic (NCr nu/nu) nude mice, 5- to 6-weeks-old, obtained from the Envigo labs (Tampa, Fla.), were housed in laminar airflow cabinets under pathogen-free conditions with a 12-h light/12-h dark schedule, and were fed autoclaved standard chow and water. To generate mice with xenografted tumors, tumor xenografts were initiated by subcutaneous (s.c.) injection of 107 human cancer cells into female nude mice. After about 4 weeks the resulting tumors were dissected and collected after removing necrosis tissues. The tumors were then cut into particles with size of 3 mm3 and transplanted s.c. by trocar needle into experimental animals. When tumors grew to the size of 50-60 mm3 (by volume), mice were randomized into groups and treated daily for 4-8 weeks by subcutaneous administration of 5 μg of GHRH antagonists MIA-602 or AVR-compounds (2-10 μg as indicated), or vehicle solutions (0.1% DMSO in 10% 1,2-propanediol) respectively. Tumor sizes were measured weekly.
(§5) Statistical analysis. One-way ANOVA followed by Bonferroni comparison were performed. Data are expressed as Mean±SEM. To determine statistical significance between animal groups, two-tailed Student's t-test was conducted. Differences were considered significant when p<0.05.
(§6) Results. […] FIG. 1A-N represents in vivo inhibition of tumor growth during the treatment with GHRH antagonist MIA-602 and selected AVR antagonists in nude mice xenografted with various human tumors including pancreatic cancer PANC-1 (FIG. 1A) and CFPAC-1 (FIG. 1I); lung cancer HCC827 (FIGS. 1B, C) and H460 (FIG. 1H); stomach cancer N87 (FIGS. 1D-F); colon cancer HT-29 (FIG. 1G); breast cancer MX-1 and HCC-1806 (FIGS. 1J, K); ovarian cancer SK-OV-3 and OVACAR-3 (FIGS. 1 L, M) and prostate cancer PC3 (FIG. 1N). See also Table 5.

For experiment [2], the system named is breast cancer MX-1 xenograft. Description: Xenograft tumor growth in nude mice, MX-1. The settings on record: Table 4J, Breast Ca MX-1, 4 weeks, 5 μg/day s.c.; for % Inhibition: vs control. The experiment is classed as in vivo. The method, then:
as §1, §2, §3, §4, §5, §6

In experiment [3] the test system is CFPAC-1 pancreatic cancer cells. Briefly: In vitro cell viability, CFPAC-1. Type of experiment: cell-based, human. The settings on record: for In vitro relative inhibitory potency in comparison to MIA-602, CFPAC-1: Table 3B, 5 μM for 72 H, MIA-602 = 1. An outline of the steps:
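Potency is reported as percent inhibition of viability compared with the reference antagonist MIA602, measured with CellTiter 96 aqueous one solution reagent. Serum-starved cells (0.5% FBS, 24 h) were treated for 72 h, mostly at 5 μM, otherwise 2 μM.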

The test system of experiment [4] is colon cancer HT-29 xenograft. Description: Xenograft tumor growth in nude mice, HT-29. The experiment is classed as in vivo. The settings on record: Table 4G, Colon Ca HT-29, 6 weeks; for % Inhibition: vs control. The method, then:
as §1, §2, §3, §4, §5, §6

Experiment [5] relates to pancreatic cancer PANC-1 xenograft. Description: Xenograft tumor growth in nude mice, PANC-1. Type of experiment: in vivo. Particulars: Table 4A, Pancreatic Ca PANC-1, 7 weeks; for % Inhibition: vs control. As to the method: as §1, §2, §3, §4, §5, §6
Experiment [6] deals with ovarian cancer SK-OV-3 xenograft. Description: Xenograft tumor growth in nude mice, SK-OV-3. The experiment is classed as in vivo. The settings on record: Table 4L, Ovarian Ca SK-OV-3, 7 weeks; for % Inhibition: vs control. The method, then: as §1, §2, §3, §4, §5, §6

One may read the % Inhibition as the share of the control response that was lost under treatment. With `CCCC[C@H](NC(=O)[C@@H](NC(=O)[C@H](CC(=O)O)NC(=O)[C@H](CCC(N)=O)NC(=O)[C@H](CC(C)C)NC(=O)[C@H](CC(C)C)NC(=O)[C@H](CCCN)NC(=O)[C@H](Cc1c[nH]cn1)NC(=O)[C@H](C)NC(=O)[C@H](CO)NC(=O)[C@H](CC(C)C)NC(=O)[C@H](CCC(N)=O)NC(=O)[C@H](CC)NC(=O)[C@H](CC(C)C)NC(=O)[C@@H](NC(=O)[C@H](CCCN)NC(=O)[C@H](Cc1c[nH]cn1)NC(=O)[C@H](Cc1ccc(OC)cc1)NC(=O)[C@H](CCCCNC(=N)N)NC(=O)[C@H](C)NC(=O)[C@@H](NC(=O)[C@H](Cc1c(F)c(F)c(F)c(F)c1F)NC(=O)[C@@H](NC(=O)[C@H](C)NC(=O)[C@H](CC(=O)O)NC(=O)[C@@H](CCCNC(=N)N)NC(=O)[C@H](Cc1ccc(O)cc1)NC(=O)CCCCCCCCCCCNC(=O)Cc1ccccc1)[C@@H](C)CC)[C@@H](C)O)C(C)C)[C@@H](C)CC)C(=O)N[C@H](CCCNC(=N)N)C(=O)N[C@@H](CCCCNC(=N)N)C(N)=O` [MIA-602, PhAC-Ada, Tyr D-Arg, Asp, Ala, Ile, 5FPhe, Thr, Ala, Har, Tyr(Me), His, Orn, Val, Leu, Abu, Gin, Leu, Ser, Ala, His, Om, Leu, Leu, Gin, Asp, Ile; Nle, D-Arg, Har NH2, reference compound] ({PhAc-12Ado}-Y[dR]DAI[Phe(F5)]TA[hArg]Y(Me)H[Orn]VL[Abu]QLSAH[Orn]LLQDI[Nle][dR][hArg]-NH2), the “Tumor Size (mm3)” value in experiment [1] was 450.9 mm3; in experiment [6] (5 μg/day s.c.), 810.1 mm3. Further, the “% Inhibition” value is given as 45.5% in experiment [1]; 39.2% in experiment [2]; 16.5% in experiment [4] (5 μg/day s.c.); 41.1% in experiment [5] (5 μg/day s.c.); 38.0% in experiment [6] (5 μg/day s.c.). Besides, the “Tumor Growth %” value in experiment [2] is on record as 677.3%; in experiment [5] (5 μg/day s.c.), 1572.7%. Also, in experiment [3], the “In vitro relative inhibitory potency in comparison to MIA-602, CFPAC-1” value (“In vitro relative inhibitory potency” below) is reported as 1. The “relative inhibitory potency in comparison to MIA-602, Pancreatic CFPAC-1” value in experiment [3] (antagonist 5 μM for 72 h, cell proliferation assay, MIA602 = 1) is given as 1. Further, the “Tumor Size (mm^3)” value in experiment [4] (5 μg/day s.c.) amounted to 582.10 mm^3.
In the case of `CCCC[C@H](NC(=O)[C@@H](NC(=O)[C@H](CC(=O)O)NC(=O)[C@H](CCC(N)=O)NC(=O)[C@H](CC(C)C)NC(=O)[C@H](CC(C)C)NC(=O)[C@H](CCCCN)NC(=O)[C@H](CCCNC(=N)N)NC(=O)[C@H](C)NC(=O)[C@H](CO)NC(=O)[C@H](CC(C)C)NC(=O)[C@H](CCC(N)=O)NC(=O)[C@H](CC)NC(=O)[C@H](CC(C)C)NC(=O)[C@@H](NC(=O)[C@H](CCCCN)NC(=O)[C@H](CCCNC(=N)N)NC(=O)[C@H](Cc1c(F)c(F)c(F)c(F)c1F)NC(=O)[C@H](CCCCNC(=N)N)NC(=O)[C@H](C)NC(=O)[C@@H](NC(=O)[C@H](Cc1ccc(Cl)cc1)NC(=O)[C@@H](NC(=O)[C@H](C)NC(=O)[C@H](CC(=O)O)NC(=O)[C@@H](CCCNC(=N)N)NC(=O)[C@H](Cc1ccc(O)cc1)NC(=O)CCCCCCCCCCCNC(=O)Cc1c(F)c(F)c(F)c(F)c1F)[C@@H](C)CC)[C@@H](C)O)C(C)C)[C@@H](C)CC)C(=O)N[C@H](CCCNC(=N)N)C(=O)N[C@@H](CCCCNC(=N)N)C(=O)NCCCCCCCCCCCC(N)=O` [AVR-353, 5FPhAC-Ada-Tyr-DArg-Asp-Ala-Ile-Cpa-Thr-Ala-Har-5FPhe-Arg-Lys-Val-Leu-Abu-Gln-Leu-Ser-Ala-Arg-Lys-Leu-Leu-Gln-Asp-Ile-Nle-DArg-Har-Ada-NH2] ({Phenylacetyl(2,3,4,5,6-F5)-12Ado}-Y[dR]DAI[Phe(4-Cl)]TA[hArg][Phe(F5)]RKVL[Abu]QLSARKLLQDI[Nle][dR][hArg][12Ado]-NH2), the “Tumor Size (mm3)” value in experiment [1] turned out to be 496.7 mm3; in experiment [6] (2.5 μg/day s.c.), 1056.0 mm3; in experiment [6] (5 μg/day s.c.), 910.7 mm3. The “% Inhibition” value is 39.9% in experiment [1]; 30.5% in experiment [2]; 24.2% in experiment [4] (2 μg/day s.c.); 31.8% in experiment [4] (5 μg/day s.c.); 44.5% in experiment [5] (2.5 μg/day s.c.); 52.9% in experiment [5] (5 μg/day s.c.). Further, the “% Inhibition” value in experiment [5] (10 μg/day s.c.) was 62.4%; in experiment [6] (2.5 μg/day s.c.), 19.1%; in experiment [6] (5 μg/day s.c.), 30.9%. Moreover, the “Tumor Growth %” value in experiment [2] came out at 774.2%; in experiment [5] (2.5 μg/day s.c.) it was 1482.8%; in experiment [5] (5 μg/day s.c.) it was 1257.3%; in experiment [5] (10 μg/day s.c.), 1005.1%. Further, the “In vitro relative inhibitory potency” value in experiment [3] was determined as 2.922. The “Tumor Size (mm^3)” value in experiment [4] (2 μg/day s.c.) amounted to 549.30 mm^3; in experiment [4] (5 μg/day s.c.), 494.70 mm^3.
Turning to `CCCC[C@H](NC(=O)[C@@H](NC(=O)[C@H](CC(=O)O)NC(=O)[C@H](CCC(N)=O)NC(=O)[C@H](CC(C)C)NC(=O)[C@H](CC(C)C)NC(=O)[C@H](CCCCN)NC(=O)[C@H](CCCNC(=N)N)NC(=O)[C@H](C)NC(=O)[C@H](CO)NC(=O)[C@H](CC(C)C)NC(=O)[C@H](CCC(N)=O)NC(=O)[C@H](CC)NC(=O)[C@H](CC(C)C)NC(=O)[C@@H](NC(=O)[C@H](CCCCN)NC(=O)[C@H](CCCNC(=N)N)NC(=O)[C@H](Cc1c(F)c(F)c(F)c(F)c1F)NC(=O)[C@H](CCCCNC(=N)N)NC(=O)[C@H](C)NC(=O)[C@@H](NC(=O)[C@H](Cc1ccc(Cl)cc1)NC(=O)[C@@H](NC(=O)[C@H](C)NC(=O)[C@H](CC(=O)O)NC(=O)[C@@H](CCCNC(=N)N)NC(=O)[C@H](Cc1ccc(O)cc1)NC(=O)CCCCCCCCCCCNC(=O)Cc1c(F)c(F)c(F)c(F)c1F)[C@@H](C)CC)[C@@H](C)O)C(C)C)[C@@H](C)CC)C(=O)N[C@H](CCCNC(=N)N)C(=O)N[C@@H](CCCCNC(=N)N)C(=O)NCCCCCCCCCCCC(=O)NC` [AVR-354] ({Phenylacetyl(2,3,4,5,6-F5)-12Ado}-Y[dR]DAI[Phe(4-Cl)]TA[hArg][Phe(F5)]RKVL[Abu]QLSARKLLQDI[Nle][dR][hArg][12Ado]-NHMe), in experiment [1], the “Tumor Size (mm3)” value is listed as 343.6 mm3 and the “% Inhibition” value is listed as 58.4%. In addition, in experiment [2], the “Tumor Growth %” value is reported as 488.3% and the “% Inhibition” value stood at 56.2%. The “In vitro relative inhibitory potency” value in experiment [3] stood at 1.67. In addition, in experiment [4] (5 μg/day s.c.), the “Tumor Size (mm^3)” value amounted to 417.90 mm^3 and the “% Inhibition” value is 42.3%.
